Patent US20250295795A1, “PEPTIDE” (priority 2021, published 2025)
“Also recorded” adds a separate entry of the source.

Tests used:
HeLa cells [1] = test: Co-delivery of antibodies, antibody fragments and RFP into live Hela cells; assay type: cell-based, human
Excerpt: Access to the cytosol by mechanisms that are independent of transmembrane pore formation constitutes a preferred method of co-delivery due to reduced toxicity to the cell. […] Successful delivery of Fab is indicated by homogenous distribution of AF647 signal in the cytosol and nucleus and is only observed in cells which have been transduced with tri-cTat B (FIG. 13). Time course of Fab uptake by tri-cTat B (FIG. 5c) follows a similar pattern as tri-cTat B alone (FIG. 3b, d). Tri-cTat B and Fab form large vesicle-like bodies that appear to release their contents into the cytosol of the cell; unambiguous cytosolic staining by Fab is observed from 23 min. Interaction between peptide trimer and biomacromolecule, mediated by charge-charge interactions is essential for the accumulation of both in endosomes and subsequent release and delivery of cargo into cells. Delivery of relatively β-sheet rich, neutrally charged recombinant RFP was unsuccessful (FIG. 16) due to a lack of association between tri-cTat B and cargo (FIG. 17). On the other hand, interaction diminishes the efficacy of the peptide trimer due to charge masking, emphasising the need to maintain an appropriate peptide to cargo ratio for a given macromolecule. Experiments to explore the efficacy of tri-cTat B in the presence of serum supplemented medium underline this principle; while tri-cTat B continues to function in the presence of serum, the number of transduced cells diminishes (42% (serum) vs. 61% (serum free)), but can be restored by increasing tri-cTat B concentration to 2 μM (79% (serum); FIG. 15). […] This is likely due to the larger size of antibodies and also to the observation that antibodies have a greater tendency to aggregate in the presence of tri-cTat B compared to Fab fragments. […] Finally, we investigated whether it is possible to deliver functional antibodies and antibody fragments into the cytosol and nuclei of cells. β-actin was chosen as a proof-of-principle protein because of its abundance in the cell and formation of distinctive subcellular filaments. To clearly identify actin filaments, Hela cells were transfected with red fluorescent protein fused to actin (actin-RFP) before being incubated with β-actin antibody (mouse IgG2b) or β-actin Fab fragment (mouse) conjugated to AF647 plus tri-cTat B for 30 min. After washing, cells were left for 60 min to allow IgG/Fab to bind to actin filaments. […] To enable objective quantification of co-localization between β-actin filaments and IgG/Fab fragment (white arrows), a co-localization threshold algorithm was used in selected regions of interest (ROI). Pearson's and Manders' coefficients were obtained under Costes' automatic threshold^32 and the co-localized pixels are shown as a mask of yellow pixels of constant intensity (co-localization panels). The significance of the co-localization parameters (Pearson's and Manders' coefficients) was evaluated using the confined displacement algorithm (CDA).
HeLa and CHO cells were cultured in DMEM supplemented with 10% FBS and penicillin/streptomycin. For post-wash experiments, Tat conjugate was added to the cells in serum free medium, cells incubated at 37° C. in an atmosphere of 5% CO2, culture medium removed at the desired time point, cells washed and transferred to the microscope for imaging. For time course or pre-wash experiments, cells were transferred to the microscope (incubation chamber at 37° C., 5% CO2) and Tat conjugate added directly to cell medium and cells imaged at desired time points. Co-delivery experiments were conducted by adding peptide trimer immediately followed by cargo into serum free medium. Samples were visualised using a Zeiss LSM 780 inverted confocal microscope fitted with a XLmultiS1 incubation chamber and Plan-Apochromat 63×/1.40 Oil DIC M27 objective. Images were analysed using ImageJ software. Digital adjustments and image processing are consistent throughout the manuscript, unless otherwise stated in the figure legend. […]

CHO cells = test: Live cell confocal microscopy: cellular uptake and intracellular distribution of Tat conjugates in CHO cells; assay type: cell-based, Chinese hamster; details: 1 μM, 60 min, serum-free DMEM, post-wash
Description: The cellular uptake and intracellular distribution of Tat-trimers and monomeric controls was investigated by performing live cell confocal microscopy of HeLa (human, cervical cancer) and CHO (Chinese hamster, epithelial) cells incubated with Tat conjugates (1 μM) in serum-free DMEM (60 min). Following washing, images were acquired using a Zeiss 780 confocal microscope fitted with an incubation chamber (FIG. 2). In accordance with observations that free Tat in the cytosol readily enters the nucleus and strongly binds to nucleoli,^29 homogenous staining of cytoplasm and nucleoli were considered as indicative of cells having accumulated free conjugate, not confined to endosomes, for quantification purposes. […] The uptake and intracellular distribution of tri-Tat A is similar in live Hela and CHO cells (FIG. 2b,d,e).
HeLa and CHO cells were cultured in DMEM supplemented with 10% FBS and penicillin/streptomycin. For post-wash experiments, Tat conjugate was added to the cells in serum free medium, cells incubated at 37° C. in an atmosphere of 5% CO2, culture medium removed at the desired time point, cells washed and transferred to the microscope for imaging. For time course or pre-wash experiments, cells were transferred to the microscope (incubation chamber at 37° C., 5% CO2) and Tat conjugate added directly to cell medium and cells imaged at desired time points. Co-delivery experiments were conducted by adding peptide trimer immediately followed by cargo into serum free medium. Samples were visualised using a Zeiss LSM 780 inverted confocal microscope fitted with a XLmultiS1 incubation chamber and Plan-Apochromat 63×/1.40 Oil DIC M27 objective. Images were analysed using ImageJ software. Digital adjustments and image processing are consistent throughout the manuscript, unless otherwise stated in the figure legend. Statistical analysis was carried out using GraphPad Prism 7 software and all data used for statistical analysis consists of measurements from distinct cells. Where applicable a parametric, unpaired, two-tailed t-test was used for statistical testing.

HeLa cells [2] = test: Membrane integrity / porosity: propidium iodide uptake after trimer treatment; assay type: cell-based, human; details: 1 μM trimer; 40 μM PI added 20 min after trimer
Description: To assess membrane integrity, 40 μM propidium iodide (PI; a cell impermeable dye), was added to Hela cells 20 min after the addition of the peptide trimer.

N=C(N)NCCC[C@@H]1NC(=O)[C@H](CCCNC(=N)N)NC(=O)[C@H](CCCNC(=N)N)NC(=O)[C@H](CCC(N)=O)NC(=O)[C@H](CCCNC(=N)N)NC(=O)[C@H](CCCNC(=N)N)NC(=O)[C@H](CCCCN)NC(=O)[C@H](CCCCN)NC(=O)[C@H](CCCNC(=N)N)NC(=O)[C@H](CCCCn2cc(COCC(COCc3cn(CCCCCCNC(=O)c4ccc5c(c4)C(=O)OC54c5ccc(N)c(S(=O)(=O)O)c5Oc5c4ccc(N)c5S(=O)(=O)O)nn3)(COCc3cn(CCCC[C@@H]4NC(=O)CC[C@@H](C(N)=O)NC(=O)[C@H](CCCNC(=N)N)NC(=O)[C@H](CCCNC(=N)N)NC(=O)[C@H](CCCNC(=N)N)NC(=O)[C@H](CCC(N)=O)NC(=O)[C@H](CCCNC(=N)N)NC(=O)[C@H](CCCNC(=N)N)NC(=O)[C@H](CCCCN)NC(=O)[C@H](CCCCN)NC(=O)[C@H](CCCNC(=N)N)NC4=O)nn3)COCc3cn(CCCC[C@@H]4NC(=O)CC[C@@H](C(N)=O)NC(=O)[C@H](CCCNC(=N)N)NC(=O)[C@H](CCCNC(=N)N)NC(=O)[C@H](CCCNC(=N)N)NC(=O)[C@H](CCC(N)=O)NC(=O)[C@H](CCCNC(=N)N)NC(=O)[C@H](CCCNC(=N)N)NC(=O)[C@H](CCCCN)NC(=O)[C@H](CCCCN)NC(=O)[C@H](CCCNC(=N)N)NC4=O)nn3)nn2)NC(=O)CC[C@@H](C(N)=O)NC1=O (stereo partly drawn) [tri-cTat B]
cells showing homogenous AF647 staining in cytosol and nucleus (whole IgG co-delivery) (HeLa cells [1]; 166 nM IgG-AF647 + 1 μM trimer, 45 min): approximately 20%
cells with Fab delivered into cytosol and nucleus (HeLa cells [1]; 500 nM AF647-labelled non-specific mouse Fab + 1 μM trimer, 30 min): 50%
time from which unambiguous cytosolic staining by Fab is observed (HeLa cells [1]; 500 nM Fab-AF647 + 1 μM trimer): 23 min
delivery of recombinant RFP (HeLa cells [1]; 1 μM trimer + 1 or 2 μM recombinant RFP, 30 min, serum free): unsuccessful
cellular uptake and intracellular distribution (CHO cells): taken up into the cytosol and nucleoli
propidium iodide (PI) uptake / pore formation (HeLa cells [2]): does not form pores in the plasma membrane; also recorded: PI negative
